ChEMBL document CHEMBL6071155, “Discovery of selective Orai channel blockers bearing an indazole or a pyrazole scaffold” (Eur J Med Chem, 2024)
Activity calls are given as the source filed them. No cut-off for these calls is given here.

Experiments:
Jurkat T = experiment: Inhibition of NFAT (unknown origin) activation transfected in human Jurkat T cells expressing firefly luciferase gene at 10 uM preincubated with compound for 30 mins followed by PMA/ionomysin addition and measured after 18 hrs by luminometer relative to control; assay type: cell-based; conditions: time 18.5 hrs
Jurkat [1] = experiment: Cytotoxicity against human Jurkat T cells assessed as cell killing at 30 uM incubated for 48 hrs by trypan blue exclusion method relative to control; assay type: toxicity, cell-based
[2] = molecular target: Transient receptor potential cation channel subfamily M member 4 (Homo sapiens) (UniProt Q8TD43); experiment: Activation of GFP-tagged human TRPM4 transfected in HEK293 cells at 10 uM by patch clamp electrophysiology; assay type: cell-based; conditions: filed as opener
Transient receptor potential cation channel subfamily M member 4 (Homo sapiens), sequence (Q8TD43 whole entry): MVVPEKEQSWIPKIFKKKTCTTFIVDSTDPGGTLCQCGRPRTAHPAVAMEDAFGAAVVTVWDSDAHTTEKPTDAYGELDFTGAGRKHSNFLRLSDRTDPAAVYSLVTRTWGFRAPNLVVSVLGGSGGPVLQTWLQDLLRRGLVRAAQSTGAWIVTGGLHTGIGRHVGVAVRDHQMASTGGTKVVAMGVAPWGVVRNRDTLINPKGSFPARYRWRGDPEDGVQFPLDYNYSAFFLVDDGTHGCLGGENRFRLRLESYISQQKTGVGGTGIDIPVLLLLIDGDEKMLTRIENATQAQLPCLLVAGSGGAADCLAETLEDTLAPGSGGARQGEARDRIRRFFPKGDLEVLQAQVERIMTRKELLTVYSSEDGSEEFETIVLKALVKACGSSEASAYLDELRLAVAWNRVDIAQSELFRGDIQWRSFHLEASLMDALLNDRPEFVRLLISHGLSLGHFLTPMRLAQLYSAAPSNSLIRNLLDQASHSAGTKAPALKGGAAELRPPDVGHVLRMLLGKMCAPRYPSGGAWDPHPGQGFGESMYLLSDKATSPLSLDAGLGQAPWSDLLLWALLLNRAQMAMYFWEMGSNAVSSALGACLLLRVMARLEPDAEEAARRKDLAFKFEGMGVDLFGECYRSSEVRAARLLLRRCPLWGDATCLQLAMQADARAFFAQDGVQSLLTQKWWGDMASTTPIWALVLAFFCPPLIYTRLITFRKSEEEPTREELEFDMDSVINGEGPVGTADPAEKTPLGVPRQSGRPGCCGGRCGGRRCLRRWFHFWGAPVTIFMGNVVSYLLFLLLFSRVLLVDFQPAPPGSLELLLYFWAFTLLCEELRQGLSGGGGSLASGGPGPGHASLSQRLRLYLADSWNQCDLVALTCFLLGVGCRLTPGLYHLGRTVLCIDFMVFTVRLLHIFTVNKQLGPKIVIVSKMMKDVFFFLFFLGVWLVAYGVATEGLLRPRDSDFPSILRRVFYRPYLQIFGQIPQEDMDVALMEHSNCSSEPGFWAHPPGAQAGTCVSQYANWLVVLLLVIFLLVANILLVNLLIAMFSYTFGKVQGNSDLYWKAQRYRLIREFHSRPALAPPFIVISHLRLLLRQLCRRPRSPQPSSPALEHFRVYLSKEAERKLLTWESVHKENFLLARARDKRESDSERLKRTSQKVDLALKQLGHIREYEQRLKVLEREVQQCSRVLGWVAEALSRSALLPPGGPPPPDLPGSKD

[3] = system: Calcium release-activated calcium channel protein 1 (Homo sapiens), Q96D31 [G98S]; experiment: Reversible inhibition of myc-tagged human Orai-1 G98S mutant expressed in HEK293 cells assessed as reduction in inward current at 10 uM measured upto 6 mins by patch clamp electrophysiology; assay type: cell-based
Calcium release-activated calcium channel protein 1 (Homo sapiens), Q96D31 [G98S], sequence (Q96D31 whole entry G98S): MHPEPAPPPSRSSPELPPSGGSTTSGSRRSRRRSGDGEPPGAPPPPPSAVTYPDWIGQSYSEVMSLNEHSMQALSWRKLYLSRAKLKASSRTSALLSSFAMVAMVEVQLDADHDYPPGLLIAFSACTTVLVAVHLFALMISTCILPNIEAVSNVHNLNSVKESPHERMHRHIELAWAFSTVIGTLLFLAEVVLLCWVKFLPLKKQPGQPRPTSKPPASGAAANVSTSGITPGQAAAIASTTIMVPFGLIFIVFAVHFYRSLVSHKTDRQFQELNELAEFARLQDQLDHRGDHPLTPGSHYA

[4] = system: Calcium release-activated calcium channel protein 1 (Homo sapiens), Q96D31 [G98S]; experiment: (§1) Inhibition of myc-tagged human orai-1 G98S mutant expressed in HEK293 cells assessed as decrease in inward current by patch clamp electrophysiology technique; assay type: cell-based; conditions: dose 1-30 µM
[5] = molecular target: Calcium release-activated calcium channel protein 1 (Homo sapiens, UniProt Q96D31, G98S); experiment: as §1; assay type: cell-based
Calcium release-activated calcium channel protein 1, sequence (Q96D31 whole entry G98S): as above

[6] = (§2) Inhibition of Store-operated calcium entry (SOCE) in phytohemagglutinin-stimulated human Jurkat T cells in presence of Ca2+ by fura-2 dye based calcium imaging analysis; assay type: functional, cell-based
Jurkat [7] = experiment: as §2; assay type: functional, cell-based
[8] = molecular target: Transient receptor potential cation channel subfamily M member 7 (Homo sapiens) (UniProt Q96QT4); experiment: Activation of TRPM7 in human Jurkat T cells at 30 uM by patch clamp electrophysiology; assay type: cell-based
Transient receptor potential cation channel subfamily M member 7 (Homo sapiens), sequence (Q96QT4 whole entry): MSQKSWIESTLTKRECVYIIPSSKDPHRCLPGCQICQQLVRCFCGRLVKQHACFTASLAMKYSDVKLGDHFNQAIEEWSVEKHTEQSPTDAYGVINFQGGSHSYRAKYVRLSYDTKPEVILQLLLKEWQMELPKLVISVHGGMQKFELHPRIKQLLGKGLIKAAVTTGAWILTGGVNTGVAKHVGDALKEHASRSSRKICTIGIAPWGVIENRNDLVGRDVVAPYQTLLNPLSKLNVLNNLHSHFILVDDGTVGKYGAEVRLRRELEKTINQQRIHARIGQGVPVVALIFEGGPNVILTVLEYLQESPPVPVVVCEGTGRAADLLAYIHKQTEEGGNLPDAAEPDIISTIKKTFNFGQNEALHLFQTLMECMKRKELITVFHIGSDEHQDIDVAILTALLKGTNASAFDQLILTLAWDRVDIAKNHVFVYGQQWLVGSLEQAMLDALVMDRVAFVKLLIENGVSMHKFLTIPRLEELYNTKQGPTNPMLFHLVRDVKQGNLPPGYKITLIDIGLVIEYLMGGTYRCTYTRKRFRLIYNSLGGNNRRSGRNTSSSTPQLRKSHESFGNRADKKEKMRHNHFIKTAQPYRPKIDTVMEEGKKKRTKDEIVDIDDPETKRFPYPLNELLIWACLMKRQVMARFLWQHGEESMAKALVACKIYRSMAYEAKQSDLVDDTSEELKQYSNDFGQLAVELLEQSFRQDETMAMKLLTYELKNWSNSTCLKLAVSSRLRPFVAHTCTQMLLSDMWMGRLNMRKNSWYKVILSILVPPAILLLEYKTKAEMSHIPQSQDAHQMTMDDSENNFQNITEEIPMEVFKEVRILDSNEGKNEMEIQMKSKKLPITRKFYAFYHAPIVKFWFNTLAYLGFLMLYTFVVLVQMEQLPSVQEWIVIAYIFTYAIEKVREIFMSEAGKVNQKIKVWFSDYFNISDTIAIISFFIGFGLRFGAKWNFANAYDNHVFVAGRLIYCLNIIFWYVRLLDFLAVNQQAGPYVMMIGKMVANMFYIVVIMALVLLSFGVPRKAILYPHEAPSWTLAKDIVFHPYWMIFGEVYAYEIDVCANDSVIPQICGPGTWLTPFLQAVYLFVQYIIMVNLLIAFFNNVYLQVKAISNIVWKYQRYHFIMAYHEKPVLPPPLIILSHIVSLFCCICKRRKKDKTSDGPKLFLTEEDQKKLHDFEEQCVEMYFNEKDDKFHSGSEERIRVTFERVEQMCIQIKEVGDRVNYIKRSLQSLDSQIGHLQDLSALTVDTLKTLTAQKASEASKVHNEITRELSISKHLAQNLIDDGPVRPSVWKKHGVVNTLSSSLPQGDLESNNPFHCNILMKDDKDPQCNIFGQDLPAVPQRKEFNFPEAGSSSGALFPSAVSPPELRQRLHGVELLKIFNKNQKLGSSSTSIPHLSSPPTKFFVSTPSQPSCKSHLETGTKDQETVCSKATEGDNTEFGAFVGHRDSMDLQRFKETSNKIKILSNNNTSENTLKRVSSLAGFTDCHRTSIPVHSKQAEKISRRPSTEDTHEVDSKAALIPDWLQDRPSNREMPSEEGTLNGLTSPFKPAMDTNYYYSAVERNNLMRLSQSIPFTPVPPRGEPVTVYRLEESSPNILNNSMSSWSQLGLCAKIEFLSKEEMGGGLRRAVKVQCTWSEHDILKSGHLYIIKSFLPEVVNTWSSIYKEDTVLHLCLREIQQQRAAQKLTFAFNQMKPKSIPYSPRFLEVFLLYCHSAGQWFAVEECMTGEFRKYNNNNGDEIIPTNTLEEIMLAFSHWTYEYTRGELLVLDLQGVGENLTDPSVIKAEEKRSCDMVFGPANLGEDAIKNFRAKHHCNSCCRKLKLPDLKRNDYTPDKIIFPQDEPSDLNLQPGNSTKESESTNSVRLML

[9] = system: Calcium release-activated calcium channel protein 1 (Homo sapiens), Q96D31 [G98S]; experiment: Inhibition of myc-tagged human orai-1 G98S mutant expressed in HEK293 cells assessed as decrease in inward current at 30 uM by patch clamp electrophysiology technique relative to control; assay type: cell-based
[10] = molecular target: Transient receptor potential cation channel subfamily M member 4 (Homo sapiens) (UniProt Q8TD43); experiment: Activation of GFP-tagged human TRPM4 transfected in HEK293 cells at 30 uM by patch clamp electrophysiology; assay type: cell-based
[11] = Inhibition of Store-operated calcium entry (SOCE) in phytohemagglutinin-stimulated human Jurkat T cells at 30 uM in presence of Ca2+ by fura-2 dye based calcium imaging analysis relative to control; assay type: functional
Jurkat [12] = experiment: Cytotoxicity against human Jurkat T cells assessed as decrease in cell viability at 30 uM incubated for 48 hrs by trypan blue exclusion method; assay type: toxicity, cell-based

Compound: O=C(Nc1ccncc1F)c1nn(CC2CC2)c2c1CCCC2
- inhibition (Jurkat T): 87.3%

Compound: O=C(Nc1ccncc1F)c1nn(CC2CC2)c2ccc(Br)cc12
- inhibition (Jurkat T): 58.6%

Compound: Cc1cnccc1NC(=O)c1nn(CC2CC2)c2ccccc12
- inhibition (Jurkat T): 86.9%

Compound: O=C(Nc1ccncc1F)c1nn(CC2CC2)c2c(F)cccc12
- inhibition (Jurkat T): 48.5%

Compound: O=C(Nc1ccncc1F)c1nn(CC2CCC2)c2c1CCCC2
- inhibition (Jurkat T): 92.8%

Compound: Cc1nnsc1C(=O)Nc1ccc(-n2nc(C(F)(F)F)cc2C(F)(F)F)cc1
- Activity (Jurkat [1]): ~ 80%
- Activity [2]: Active

Compound: O=C(Nc1c(F)cccc1F)c1ccn(CC2CC2)n1
- inhibition (Jurkat T): inactive

Compound: O=C(Nc1ccncc1F)c1nn(CC2CCCC2)c2ccccc12
- inhibition (Jurkat T): 95.4%

Compound: O=C(Nc1ccncc1F)c1nn(CC2CCCCC2)c2ccccc12
- inhibition (Jurkat T): 88.4%

Compound: Cc1ccc2c(c1)c(C(=O)Nc1ccncc1F)nn2CC1CC1
- inhibition (Jurkat T): 81.9%

Compound: O=C(Nc1ccncc1F)c1nn(CC2CCC2)c2ccccc12
- inhibition (Jurkat T): 80.5%

Compound: O=C(Nc1ccncc1F)c1nn(CC2CC2)c2ncccc12
- inhibition (Jurkat T): 64.6%
- inhibition [3]: Active

Compound: Cc1cnccc1NC(=O)c1nn(CC2CC2)c2c1CCC2
- inhibition (Jurkat T): 55.5%

Compound: Cc1cnccc1NC(=O)c1nn(CC2CC2)c2c1CCCC2
- inhibition (Jurkat T): 88.7%

Compound: Cc1cnccc1NC(=O)c1nn(CC2CCC2)c2c1CCCC2
- inhibition (Jurkat T): 92.6%

Compound: O=C(Nc1c(F)cccc1F)c1nn(CC2CC2)c2c1CCCC2
- inhibition (Jurkat T): 53.9%

Compound: O=C(Nc1ccncc1F)c1nn(CC2CC2)c2ccccc12
- inhibition [4]: Dose-Dependent Effect
- IC50 [5]: 4.9 µM
- inhibition (Jurkat T): 97.9%
- IC50 [6]: 10 µM
- inhibition (Jurkat [7]): Dose-Dependent Effect
- Activity [8]: inactive
- inhibition [9]: 100%
- Activity [10]: inactive
- inhibition [3]: Active
- inhibition at 30 µM [11]: 100%
- Activity (Jurkat [12]): Non-Toxic

Compound: O=C(Nc1ccncc1F)c1nn(C(=O)C2CC2)c2ccccc12
- inhibition (Jurkat T): 76.8%

Compound: Cc1cnccc1NC(=O)c1ccn(CC2CC2)n1
- inhibition (Jurkat T): 61.3%

Compound: O=C(Nc1ccncc1F)c1ccn(CC2CC2)n1
- inhibition (Jurkat T): 60.2%

Compound: O=C(Nc1ccncc1F)c1nn(CC2CC2)c2c1CCC2
- inhibition (Jurkat T): 63.6%

Compound: O=C(Nc1ccncc1F)c1nn(CC2CC2)c2cc(F)ccc12
- inhibition (Jurkat T): 96.1%

Compound: Cc1cnccc1NC(=O)c1nn(CC2CCC2)c2ccccc12
- inhibition (Jurkat T): 92.4%

Compound: O=C(Nc1ccncc1F)c1nn(CC2CC2)c2cc(Cl)ccc12
- inhibition (Jurkat T): 51.9%

Compound: O=C(Nc1ccncc1F)c1nn(CC2CC2)c2ccc(F)cc12
- inhibition (Jurkat T): 77.3%
